In patent US11208387B2, “Macrocyclic broad spectrum antibiotics” (Genentech, Inc., priority 2019, dated 2021):
In brackets after ≈: the same amount, converted by molar mass. Like-named read-outs stand apart in the source and are kept apart here.

Legend:
Test in all cases: Serum MIC, broth micro-dilution
Format in all cases: cell-based
[1] = system: Pseudomonas aeruginosa PA01; conditions: Pseudomonas aeruginosa, PA01; 50% v/v mouse serum in Mueller Hinton II cation adjusted Broth, 35° C., 22 hours; Table 4; read-out: P. aeruginosa 01 Serum MIC
Outline: (§1)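 Plates held at 35 °C for 22 h after adding bacteria to a final OD600 of 0.0005. Medium was a 1:1 mix of mouse serum and cation-adjusted Mueller Hinton II broth. Ten two-fold compound dilutions began at 64, 4, 0.5 or 0.13 μg/mL, per CLSI microdilution.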

[2] = system: Acinetobacter baumannii ATCC 17978; conditions: Acinetobacter baumannii, ATCC17978, 50% v/v mouse serum in Mueller Hinton II cation adjusted Broth, 35° C., 22 hours
Outline: as §1

[3] = system: Escherichia coli strain ATCC 25922; conditions: Escherichia coli, ATCC25922; 50% v/v mouse serum in Mueller Hinton II cation adjusted Broth, 35° C., 22 hours; Table 4; read-out: E. coli 25922 Serum MIC
Outline: as §1

[4] = system: Klebsiella pneumoniae ATCC 700603; conditions: Klebsiella pneumoniae, ATCC700603; 50% v/v mouse serum in Mueller Hinton II cation adjusted Broth, 35° C., 22 hours; Table 4; read-out: K pneumoniae 700603 Serum MIC
Outline: as §1

[5] = Table 4, read-out: A. baumanii 17978 Serum MIC
[6] = Table 5, read-out: Acinetobacter baumanii 17978 Serum MIC

Compound | MIC [1] [µM] | MIC [2, 5] [µM] | MIC [2, 6] [µM] | MIC [3] [µM] | MIC [4] [µM]
Cc1nc(-c2ccc(C(C)(C)C)cc2CO)nc(N)c1C(=O)N[C@@H](CNS(N)(=O)=O)C(=O)N(C)[C@@H]1C(=O)N[C@@H](C)C(=O)N[C@H](C(=O)O)Cc2ccc(OC[C@H](O)CN)c(c2)-c2cc1cc(OC[C@H](O)CN)c2O [Example 58, (8S,11S,14S)-14-[[(2S)-2-[[4-amino-2-[4-tert-butyl-2-(hydroxymethyl)-phenyl]-6-methyl-pyrimidine-5-carbonyl]amino]-3-(sulfamoylamino)-propanoyl]-methyl-amino]-3,17-bis[(2R)-3-amino-2-hydroxy-propoxy]-18-hydroxy-11-methyl-10,13-dioxo-9,12-diazatricyclo-[13.3.1.12,6]icosa-1(18),2(20),3,5,15(19), 16-hexaene-8-carboxylic acid] | 16 (≈ 16.6 µg/mL) | 48 (≈ 49.8 µg/mL) | 48 (≈ 49.8 µg/mL) | 4 (≈ 4.15 µg/mL) | 4 (≈ 4.15 µg/mL)
Cc1cc(C(C)(C)C)ccc1-c1nc(C)c(C(=O)N[C@@H](CNS(N)(=O)=O)C(=O)N(C)[C@@H]2C(=O)N[C@@H](C)C(=O)N[C@H](C(=O)O)Cc3ccc(OC[C@H](O)CN)c(c3)-c3cc2cc(OC[C@H](O)CN)c3O)c(N)n1 [Example 59, (8S,11S,14S)-14-[[(2S)-2-[[4-amino-2-(4-tert-butyl-2-methyl-phenyl)-6-methyl-pyrimidine-5-carbonyl]amino]-3-(sulfamoylamino)-propanoyl]-methyl-amino]-3,17-bis[(2R)-3-amino-2-hydroxy-propoxy]-18-hydroxy-11-methyl-10,13-dioxo-9,12-diazatricyclo-[13.3.1.12,6]icosa-1(18),2(20),3,5,15(19), 16-hexaene-8-carboxylic acid] | 4 (≈ 4.09 µg/mL) | 16 (≈ 16.4 µg/mL) | 16 (≈ 16.4 µg/mL) | 1 (≈ 1.02 µg/mL) | 1 (≈ 1.02 µg/mL)
Cc1nc(-c2ccc(C(C)(C)C)c(F)c2)nc(N)c1C(=O)N[C@@H](CNS(N)(=O)=O)C(=O)N(C)[C@@H]1C(=O)N[C@@H](C)C(=O)N[C@H](C(=O)O)Cc2ccc(OC[C@H](O)CN)c(c2)-c2cc1cc(OC[C@H](O)CN)c2O [Example 60, (8S,11S,14S)-14-[[(2S)-2-[[4-amino-2-(4-tert-butyl-3-fluoro-phenyl)-6-methyl-pyrimidine-5-carbonyl]amino]-3-(sulfamoylamino)-propanoyl]-methyl-amino]-3,17-bis[(2R)-3-amino-2-hydroxy-propoxy]-18-hydroxy-11-methyl-10,13-dioxo-9,12-diazatricyclo-[13.3.1.12,6]icosa-1(18),2(20),3,5,15(19), 16-hexaene-8-carboxylic acid] | 4 (≈ 4.1 µg/mL) | 12 (≈ 12.3 µg/mL) | 12 (≈ 12.3 µg/mL) | 0.5 (≈ 0.513 µg/mL) | 0.75 (≈ 0.77 µg/mL)
Cc1nc(-c2ccc(C(C)(C)C)cc2)cc(CN)c1C(=O)N[C@@H](CNS(N)(=O)=O)C(=O)N(C)[C@@H]1C(=O)N[C@@H](C)C(=O)N[C@H](C(=O)O)Cc2ccc(OC[C@H](O)CN)c(c2)-c2cc1cc(OC[C@H](O)CN)c2O [Example 63, (8S,11S,14S)-3,17-bis[(2R)-3-amino-2-hydroxy-propoxy]-14-[[(2S)-2-[[4-(amino-methyl)-6-(4-tert-butylphenyl)-2-methyl-pyridine-3-carbonyl]amino]-3-(sulfamoylamino)-propanoyl]-methyl-amino]-18-hydroxy-11-methyl-10,13-dioxo-9,12-diazatri-cyclo[13.3.1.12,6]icosa-1(18),2(20),3,5,15(19), 16-hexaene-8-carboxylic acid] | 16 (≈ 16.3 µg/mL) | 16 (≈ 16.3 µg/mL) | 16 (≈ 16.3 µg/mL) | 1 (≈ 1.02 µg/mL) | 0.5 (≈ 0.511 µg/mL)

Results, then the molecule that gave them:

MIC [1] [µM] | MIC [2, 5] [µM] | MIC [2, 6] [µM] | MIC [3] [µM] | MIC [4] [µM] | Compound
6 (≈ 5.78 µg/mL) | 6 (≈ 5.78 µg/mL) | 6 (≈ 5.78 µg/mL) | 0.19 (≈ 0.183 µg/mL) | 0.19 (≈ 0.183 µg/mL) | C[C@@H]1NC(=O)[C@@H](N(C)C(=O)[C@H](CCN)NC(=O)c2c(N)nc(-c3ccc(C(C)(C)C)cc3)nc2Cl)c2cc(OC[C@H](O)CN)c(O)c(c2)-c2cc(ccc2OC[C@H](O)CN)C[C@@H](C(=O)O)NC1=O [Example 55, (8S,11S,14S)-18-hydroxy-11-methyl-14-[methyl-[(2S)-4-amino-2-[[4-amino-2-(4-tert-butylphenyl)-6-chloro-pyrimidine-5-carbonyl]amino]-butanoyl]amino]-10,13-dioxo-3,17-bis[(2R)-3-amino-2-hydroxy-propoxy]-9,12-diazatricyclo-[13.3.1.12,6]icosa-1(18),2(20),3,5,15(19), 16-hexaene-8-carboxylic acid]
3 (≈ 3.07 µg/mL) | 6 (≈ 6.13 µg/mL) | 6 (≈ 6.13 µg/mL) | 0.25 (≈ 0.256 µg/mL) | 0.5 (≈ 0.511 µg/mL) | CNc1nc(-c2ccc(C(C)(C)C)cc2)nc(C)c1C(=O)N[C@@H](CNS(N)(=O)=O)C(=O)N(C)[C@@H]1C(=O)N[C@@H](C)C(=O)N[C@H](C(=O)O)Cc2ccc(OC[C@H](O)CN)c(c2)-c2cc1cc(OC[C@H](O)CN)c2O [Example 56, (8S,11S,14S)-3,17-bis[(2R)-3-amino-2-hydroxy-propoxy]-14-[[(2S)-2-[[2-(4-tert-butylphenyl)-4-methyl-6-(methyl-amino)pyrimidine-5-carbonyl]amino]-3-(sulfamoylamino)-propanoyl]-methyl-amino]-18-hydroxy-11-methyl-10,13-dioxo-9,12-diazatri-cyclo[13.3.1.12,6]icosa-1(18),2(20),3,5,15(19), 16-hexaene-8-carboxylic acid]
8 (≈ 8.29 µg/mL) | 16 (≈ 16.6 µg/mL) | 16 (≈ 16.6 µg/mL) | 0.75 (≈ 0.777 µg/mL) | 1 (≈ 1.04 µg/mL) | Cc1nc(-c2cc3c(cc2O)C(C)(C)CC3)nc(N)c1C(=O)N[C@@H](CNS(N)(=O)=O)C(=O)N(C)[C@@H]1C(=O)N[C@@H](C)C(=O)N[C@H](C(=O)O)Cc2ccc(OC[C@H](O)CN)c(c2)-c2cc1cc(OC[C@H](O)CN)c2O [Example 57, (8S,11S,14S)-18-hydroxy-11-methyl-14-[methyl-[(2S)-2-[[4-amino-2-(6-hydroxy-1,1-dimethyl-indan-5-yl)-6-methyl-pyrimidine-5-carbonyl]amino]-3-(sulfamoylamino)-propanoyl]amino]-10,13-dioxo-3,17-bis[(2R)-3-amino-2-hydroxy-propoxy]-9,12-diazatricyclo-[13.3.1.12,6]icosa-1(18),2(20),3,5,15(19), 16-hexaene-8-carboxylic acid]
3 (≈ 3.13 µg/mL) | 16 (≈ 16.7 µg/mL) | 16 (≈ 16.7 µg/mL) | 0.38 (≈ 0.397 µg/mL) | 0.5 (≈ 0.522 µg/mL) | C[C@@H]1NC(=O)[C@@H](N(C)C(=O)[C@H](CNS(N)(=O)=O)NC(=O)c2c(N)cc(-c3ccc(C(C)(C)C)cc3O)nc2Cl)c2cc(OC[C@H](O)CN)c(O)c(c2)-c2cc(ccc2OC[C@H](O)CN)C[C@@H](C(=O)O)NC1=O [Example 61, (8S,11S,14S)-18-hydroxy-11-methyl-14-[methyl-[(2S)-2-[[4-amino-6-(4-tert-butyl-2-hydroxy-phenyl)-2-chloro-pyridine-3-carbonyl]-amino]-3-(sulfamoyl-amino)propanoyl]-amino]-10,13-dioxo-3,17-bis[(2R)-3-amino-2-hydroxy-propoxy]-9,12-diazatricyclo-[13.3.1.12,6]icosa-1(18),2(20),3,5,15(19), 16-hexaene-8-carboxylic acid]
